Laboratory results published in patent US20230312577A1, “DUAL KINASE-BROMODOMAIN INHIBITORS” (MONASH UNIVERSITY, priority 2020, published 2023).

What was measured:
PI3K [1] = target: T1, PI3K; experiment: PI3K enzyme activity assay (luminescence, ATP consumption, Kinase-Glo); type: biochemical; conditions: 10 μM ATP, 180 μM phosphatidyl inositol, 60 min
T1 construct: PI3K Enzyme Activity Assay IC50 (nM); other: 10 μM ATP, 180 μM phosphatidyl inositol, 60 min
Procedure: (§1) PI3K activity was determined using a luminescence assay measuring ATP consumption as described previously (J.-A. Pinson, Z. Zheng, M. S. Miller, D. K. Chalmers, I. G. Jennings, P. E. Thompson, L-Aminoacyl-triazine derivatives are isoform-selective PI3Kβ inhibitors that target nonconserved Asp862 of PI3Kb, ACS Med. Chem. Lett. 4 (2013) 206-210). PI3K enzyme activity was determined in 25 μl of 20 mM HEPES pH 7.5, 5 mM MgCl2 with 180 μM phosphatidyl inositol and 10 μMATP. After a 60 min incubation at room temperature the reaction was stopped by the addition of Kinase-Glo (Promega) followed by a further 15 min incubation. Luminescence was then read using a Fluostar plate reader (BMGLabtech).
(§2) Inhibitors were diluted in 20% (v/v) DMSO at the indicated concentrations in order to generate a concentration versus inhibition of enzyme activity curve which was then analysed using GraphPad Prism version 8.00 for Windows, (GraphPad Software, San Diego California USA) in order to calculate the IC50. Standard deviations for the calculated IC50's are within 25% of the mean.

OPM2 cells = experiment: Cell proliferation assay (ViaLight, cellular ATP); type: cell-based; conditions: Homo sapiens, OPM-2, 120 h, 5 days, 5 μM to 1 nM
Outline: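 1×10^3 cells per well exposed to compounds at final 5 μM to 1 nM for 5 days. Viability read as cellular ATP by ViaLight luminescence, technical triplicates. GI50 computed from the dose–response.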

[2] = target: GST-BRD4 (binding domain 1, amino acids 44-168) (Homo sapiens, UniProt O60885); experiment: Bromodomain binding assay (FRET); conditions: for IC50: BRD4 binding domain 1, tetracetylated histone 4 peptide
Procedure: Inhibition of bromodomain binding was measured using a FRET (fluorescence resonance energy transfer) based assay. […] In the presence of the two detection reagents, streptavidin D2 and anti-GST-Eu (CisBio) binding trig-gers a FRET signal detected by fluorescence at 665 nm as measured using a Pherastar reader (BMG Labtech). Data was analysed using GraphPad Prism version 8.00 for Windows, (GraphPad Software, San Diego California USA) in order to calculate the IC50. Standard deviations for the calculated IC50's are within 25% of the mean.

PI3K [3] = experiment: PI3K enzyme activity assay (luminescence, ATP consumption, Kinase-Glo); type: biochemical
Procedure: as §1, §2

[4] = tested on: MLL-AF9 cells (IBET-151-sensitive and IBET-151-resistant); experiment: Apoptosis assay in BET-inhibitor-resistant cells (Annexin V/PI); type: cell-based, mouse; conditions: 1 μM, 72 h
Procedure: Mouse AML cells; MLL-AF9 (IBET-151-sensitive and IBET-151-resistant) (5×10^4) were treated with indicated compounds for 72 h. Apoptotic analysis was performed by flow cytometry using Annexin V/propidium iodide (PI) stains. Data were collected on a BD LSR-Fortessa X20 (BD Biosciences) and analysed using FlowJo Software, version 10.0.7 (Tree Star). IC50 were calculated using the GraphPad Prism Software Version 7.0c. Data are representative of biological triplicates.

Row | IC50 (PI3K [1]) | IC50 [2] | selectivity (PI3K) (PI3K [3]) | selectivity (BRD-4) [2] | SMILES | GI50 (OPM2 cells) | apoptosis in I-BET151-resistant MLL-AF9 cells [4]
1 | > 500 nM | > 500 nM | – | – | CC(=O)N1c2ccc(-c3ccc(C(=O)N4CCN(C(=O)c5cn6cc(-c7cnc(N)nc7)nc(N7CCOCC7)c6n5)CC4)cc3)cc2CCC1C (stereo not shown) [Cpd 001, 1-(6-(4-(4-(6-(2-Aminopyrimidin-5-yl)-8-morpholinoimidazo[1,2-a]pyrazine-2-carbonyl)piperazine-1-carbonyl)phenyl)-2-methyl-3,4-dihydroquinolin-1(2H)-yl)ethan-1-one] | 100 to 500 nM | –
2 | ≤ 100 nM | 100 to 500 nM | – | – | CC(=O)N1c2ccc(-c3ccc(CNC(=O)c4cn5cc(-c6cnc(N)nc6)nc(N6CCOCC6)c5n4)cc3)cc2CCC1C (stereo not shown) [Cpd 002, N-(4-(1-Acetyl-2-methyl-1,2,3,4-tetrahydroquinolin-6-yl)benzyl)-6-(2-aminopyrimidin-5-yl)-8-morpholinoimidazo[1,2-a]pyrazine-2-carboxamide] | ≤ 100 nM | –
3 | ≤ 100 nM | > 500 nM | – | – | CC(=O)N1c2ccc(-c3ccc(CNC(=O)CNC(=O)c4cn5cc(-c6cnc(N)nc6)nc(N6CCOCC6)c5n4)cc3)cc2CCC1C (stereo not shown) [Cpd 003, N-(2-((4-(1-Acetyl-2-methyl-1,2,3,4-tetrahydroquinolin-6-yl)benzyl)amino)-2-oxoethyl)-6-(2-aminopyrimidin-5-yl)-8-morpholinoimidazo[1,2-a]pyrazine-2-carboxamide] | 100 to 500 nM | –
4 | 100 to 500 nM | 100 to 500 nM | – | – | CC(=O)N1c2ccc(-c3ccc(CN4CCN(C(=O)c5cn6cc(-c7cnc(N)nc7)nc(N7CCOCC7)c6n5)CC4)s3)cc2CCC1C (stereo not shown) [Cpd 004, 1-(6-(5-((4-(6-(2-Aminopyrimidin-5-yl)-8-morpholinoimidazo[1,2-a]pyrazine-2-carbonyl)piperazin-1-yl)methyl)thiophen-2-yl)-2-methyl-3,4-dihydroquinolin-1(2H)-yl)ethan-1-one] | – | –
5 | ≤ 100 nM | 100 to 500 nM | – | – | CC(=O)N1c2ccc(-c3ccc(CNC(=O)c4cn5cc(-c6cnc(N)nc6)nc(N6CCOCC6)c5n4)s3)cc2CCC1C (stereo not shown) [Cpd 005, N-((5-(1-Acetyl-2-methyl-1,2,3,4-tetrahydroquinolin-6-yl)thiophen-2-yl)methyl)-6-(2-aminopyrimidin-5-yl)-8-morpholinoimidazo[1,2-a]pyrazine-2-carboxamide] | ≤ 100 nM | –
6 | ≤ 100 nM | > 500 nM | – | – | CC(=O)N1c2ccc(-c3ccc(C(=O)CN4CCN(C(=O)c5cn6cc(-c7cnc(N)nc7)nc(N7CCOCC7)c6n5)CC4)cc3)cc2CCC1C (stereo not shown) [Cpd 007, 1-(4-(1-acetyl-2-methyl-1,2,3,4-tetrahydroquinolin-6-yl)phenyl)-2-(4-(6-(2-aminopyrimidin-5-yl)-8-morpholinoimidazo[1,2-a]pyrazine-2-carbonyl)piperazin-1-yl)ethan-1-one] | – | –
7 | ≤ 100 nM | > 500 nM | – | – | CC(=O)N1c2ccc(-c3ccc(C(=O)CNC(=O)c4cn5cc(-c6cnc(N)nc6)nc(N6CCOCC6)c5n4)cc3)cc2CCC1C (stereo not shown) [Cpd 008, N-(2-(4-(1-Acetyl-2-methyl-1,2,3,4-tetrahydroquinolin-6-yl)phenyl)-2-oxoethyl)-6-(2-aminopyrimidin-5-yl)-8-morpholinoimidazo[1,2-a]pyrazine-2-carboxamide] | – | –
8 | 100 to 500 nM | ≤ 100 nM | – | – | CC(=O)N1c2ccc(-c3ccc(C(=O)NCCNC(=O)c4cn5cc(-c6cnc(N)nc6)nc(N6CCOCC6)c5n4)cc3)cc2CCC1C (stereo not shown) [Cpd 009, N-(2-(4-(1-Acetyl-2-methyl-1,2,3,4-tetrahydroquinolin-6-yl)benzamido)ethyl)-6-(2-ami-nopyrimidin-5-yl)-8-morpholinoimidazo[1,2-a]pyrazine-2-carboxamide] | ≤ 100 nM | –
9 | ≤ 100 nM | ≤ 100 nM | – | – | CC(=O)N1c2ccc(-c3ccc(C(=O)NCCCNC(=O)c4cn5cc(-c6cnc(N)nc6)nc(N6CCOCC6)c5n4)cc3)cc2CC[C@@H]1C [Cpd 013, (S)-N-(3-(4-(1-Acetyl-2-methyl-1,2,3,4-tetrahydroquinolin-6-yl)benzamido)propyl)-6-(2-aminopyrimidin-5-yl)-8-morpholinoimidazo[1,2-a]pyrazine-2-carboxamide] | > 500 nM | –
10 | 100 to 500 nM | – | – | – | CC(=O)N1c2ccc(-c3ccc(C(=O)N4CCN(Cc5cc6nc(-c7cnc(N)nc7)nc(N7CCOCC7)c6s5)CC4)cc3)cc2CC[C@@H]1C [Cpd 028, (S)-1-(6-(4-(4-((2-(2-Aminopyrimidin-5-yl)-4-morpholinothieno[3,2-d]pyrimidin-6-yl)methyl)piperazine-1-carbonyl)phenyl)-2-methyl-3,4-dihydroquinolin-1(2H)-yl)ethan-1-one] | 100 to 500 nM | –
11 | 100 to 500 nM | – | – | – | CC(=O)N1c2ccc(-c3ccc(CN4CCN(Cc5cc6nc(-c7cnc(N)nc7)nc(N7CCOCC7)c6s5)CC4)cc3)cc2CC[C@@H]1C [Cpd 029, (S)-1-(6-(4-((4-((2-(2-Aminopyrimidin-5-yl)-4-morpholinothieno[3,2-d]pyrimidin-6-yl)methyl)piperazin-1-yl)methyl)phenyl)-2-methyl-3,4-dihydroquinolin-1(2H)-yl)ethan-1-one] | 100 to 500 nM | –
12 | > 500 nM | – | – | – | CC(=O)N1c2ccc(-c3ccc(CNC(=O)c4cc5nc(-c6cnc(N)nc6)nc(N6CCOCC6)c5s4)cc3)cc2CC[C@@H]1C [Cpd 030, (S)-N-(4-(1-acetyl-2-methyl-1,2,3,4-tetrahydroquinolin-6-yl)benzyl)-2-(2-aminopyrimidin-5-yl)-4-morpholinothieno[3,2-d]pyrimidine-6-carboxamide] | ≤ 100 nM | –
13 | 100 to 500 nM | – | – | – | CC(=O)N1c2ccc(-c3ccc(C(=O)NCCNC(=O)c4cc5nc(-c6cnc(N)nc6)nc(N6CCOCC6)c5s4)cc3)cc2CC[C@@H]1C [Cpd 031, (S)-N-(2-(4-(1-Acetyl-2-methyl-1,2,3,4-tetrahydroquinolin-6-yl)benzamido)ethyl)-2-(2-aminopyrimidin-5-yl)-4-morpholinothieno[3,2-d]pyrimidine-6-carboxamide] | ≤ 100 nM | –
14 | > 500 nM | – | – | – | CC(=O)N1c2ccc(-c3ccc(CNC(=O)c4sc5c(N6CCOCC6)nc(-c6cnc(N)nc6)nc5c4C)cc3)cc2CC[C@@H]1C [Cpd 032, (S)-N-(4-(1-acetyl-2-methyl-1,2,3,4-tetrahydroquinolin-6-yl)benzyl)-2-(2-aminopyrimidin-5-yl)-7-methyl-4-morpholinothieno[3,2-d]pyrimidine-6-carboxamide] | ≤ 100 nM | –
15 | ≤ 100 nM | – | – | – | CC(=O)N1c2ccc(-c3ccc(C(=O)NCCNC(=O)c4sc5c(N6CCOCC6)nc(-c6cnc(N)nc6)nc5c4C)cc3)cc2CC[C@@H]1C [Cpd 033, (S)-N-(2-(4-(1-Acetyl-2-methyl-1,2,3,4-tetrahydroquinolin-6-yl)benzamido)ethyl)-2-(2-aminopyrimidin-5-yl)-7-methyl-4-morpholinothieno[3,2-d]pyrimidine-6-carboxamide] | ≤ 100 nM | –
16 | – | – | selective PI3K inhibitor | – | CC(=O)N1c2ccc(-c3ccc(CNC(=O)c4cn5cc(-c6cnc(N)nc6)nc(N6CCOCC6)c5n4)cc3)cc2CC[C@H]1C [Cpd 034, (R)-N-(4-(1-acetyl-2-methyl-1,2,3,4-tetrahydroquinolin-6-yl)benzyl)-6-(2-aminopyrimidin-5-yl)-8-morpholinoimidazo[1,2-a]pyrazine-2-carboxamide] | – | –
17 | – | – | – | selective BRD-4 inhibitor | CC(=O)N1c2ccc(-c3ccc(CNC(=O)c4cn5cc(-c6cnc(N)nc6)nc(N6CCNCC6)c5n4)cc3)cc2CC[C@@H]1C.Cl [Cpd 035, (S)-N-(4-(1-acetyl-2-methyl-1,2,3,4-tetrahydroquinolin-6-yl)benzyl)-6-(2-aminopyrimidin-5-yl)-8-(piperazin-1-yl)imidazo[1,2-a]pyrazine-2-carboxamide hydrochloride] | ≤ 100 nM | –
18 | – | – | – | – | COc1cc2c(cc1-c1c(C)noc1C)ncc1[nH]c(=O)n([C@H](C)c3ccccn3)c12 [I-BET151, reference compound] | – | resistance to I-BET151 drug in the resistant cells was confirmed
